Measured values from patent US20200368247A1, “CENICRIVIROC FOR THE TREATMENT OF FIBROSIS” (Tobira Therapeutics, Inc., priority 2014, published 2020).

Columns and labels:
[1] = Study 202 ECG abnormalities; assay type: in vivo, human; settings: All CVC (N = 115); EFV (N = 28), through Week 48
[2] = Study 202 post-hoc APRI and FIB-4 fibrosis index scores; assay type: in vivo, human
Experimental: APRI and FIB-4 scores were calculated. Change in score category from baseline (BL) to Weeks 24 and 48 was assessed in patients with non-missing data. Correlations between changes from BL in APRI and FIB-4 scores, and MCP-1 (CCR2 ligand) and sCD14 (inflammatory biomarker) levels were evaluated.

## O=C1Nc2ccc(Cl)cc2[C@@](C#CC2CC2)(C(F)(F)F)O1 [EFV, efavirenz, reference compound]
[1]
  HR Abnormally high (120 bpm ≤ abnormally high): 0 n (%)
  HR Abnormally low (≤ 50 bpm): 0 n (%)
  PR Abnormally high (210 ms ≤ abnormally high): 1 (4%) n (%)
  QRS Abnormally high (120 ms ≤ abnormally high): 0 n (%)
  QRS Abnormally low (≤ 50 ms): 0 n (%)
  QTcB interval Borderline (450 ms ≤ borderline ≤ 480 ms): 3 (11%) n (%)
  QTcB interval Increase by >30-60 ms: 4 (14%) n (%)
  QTcB interval Increase by >60 ms: 0 n (%)
  QTcB interval Pathologically prolonged (> 500 ms): 0 n (%)
  QTcB interval Prolonged (480 ms < prolonged ≤ 500 ms): 0 n (%)
  QTcF interval Borderline (450 ms ≤ borderline ≤ 480 ms): 0 n (%)
  QTcF interval Increase by >30-60 ms: 4 (14%) n (%)
  QTcF interval Increase by >60 ms: 0 n (%)
  QTcF interval Pathologically prolonged (> 500 ms): 0 n (%)
  QTcF interval Prolonged (480 ms < prolonged ≤ 500 ms): 0 n (%)
[2]; Baseline
  APRI 0.5-1.5, patients: 4%
  APRI <0.5, patients: 96%
  FIB-4 <1.45, patients: 100%
[2]; EFV arm, Weeks 24 and 48
  subjects with decrease in FIB-4 score by one category: no subject
[2]; Week 24
  APRI <0.5, patients: 100%
  APRI decreased 1 category from baseline, patients: 5%
  FIB-4 <1.45, patients: 100%
[2]; Week 48
  APRI <0.5, patients: 100%
  APRI decreased 1 category from baseline, patients: 6%
  FIB-4 1.45-3.25, patients: 6%
  FIB-4 <1.45, patients: 94%
